Assay results: PubChem BioAssay (NCI)
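1) Cells in 96-well plates. 2) Compound, 48 h, 5 concentrations. 3) Linear interpolation between surrounding doses. 4) Unreached endpoint = highest concentration. TGI is the concentration that stops growth completely.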

Experiments:
Assay in all cases: DTP human tumour cell line panel, 48 h
[1] = tested on: 786-0 renal
[2] = tested on: A498 renal
[3] = tested on: A549 NSCLC
[4] = tested on: ACHN renal
[5] = tested on: BT-549 breast
[6] = tested on: CAKI-1 renal
[7] = tested on: CCRF-CEM leukemia
[8] = tested on: COLO 205 colon
[9] = tested on: DU-145 prostate
[10] = tested on: EKVX NSCLC
[11] = tested on: HCC-2998 colon
[12] = tested on: HCT-116 colon
[13] = tested on: HCT-15 colon
[14] = tested on: HL-60(TB) leukemia
[15] = tested on: HOP-62 NSCLC
[16] = tested on: HOP-92 NSCLC
[17] = tested on: HS 578T breast
[18] = tested on: HT29 colon
[19] = tested on: IGROV1 ovarian
[20] = tested on: K-562 leukemia
[21] = tested on: KM12 colon
[22] = tested on: LOX IMVI melanoma
[23] = tested on: M14 melanoma
[24] = tested on: MALME-3M melanoma
[25] = tested on: MCF7 breast
[26] = tested on: MDA-MB-231 breast
[27] = tested on: MDA-MB-435
[28] = tested on: MDA-N
[29] = tested on: MOLT-4 leukemia
[30] = tested on: NCI-H226 lung
[31] = tested on: NCI-H23 lung
[32] = tested on: NCI-H460 lung
[33] = tested on: NCI-H522 lung
[34] = tested on: NCI/ADR-RES ovarian
[35] = tested on: OVCAR-3 ovarian
[36] = tested on: OVCAR-4 ovarian
[37] = tested on: OVCAR-5 ovarian
[38] = tested on: OVCAR-8 ovarian
[39] = tested on: PC-3 prostate
[40] = tested on: RPMI-8226 leukemia
[41] = tested on: RXF 393 renal
[42] = tested on: SF-268 CNS
[43] = tested on: SF-295 CNS
[44] = tested on: SF-539 CNS
[45] = tested on: SK-MEL-2 melanoma
[46] = tested on: SK-MEL-28 melanoma
[47] = tested on: SK-MEL-5 melanoma
[48] = tested on: SK-OV-3 ovarian
[49] = tested on: SN12C renal
[50] = tested on: SNB-19 CNS
[51] = tested on: SNB-75 CNS
[52] = tested on: SR leukemia
[53] = tested on: SW-620 colon
[54] = tested on: T-47D breast
[55] = tested on: TK-10 renal
[56] = tested on: U251 CNS
[57] = tested on: UACC-257 melanoma
[58] = tested on: UACC-62 melanoma
[59] = tested on: UO-31 renal

## CC1=NC(C)(COC(=O)C2(C)NC(C)(CO)CO2)COC1=O (stereo unspecified)
[1]
  TGI: > 100 µM
[2]
  TGI: > 100 µM
[3]
  TGI: > 100 µM
[4]
  TGI: > 100 µM
[5]
  TGI: > 100 µM
[6]
  TGI: > 100 µM
[7]
  TGI: > 100 µM
[8]
  TGI: > 100 µM
[9]
  TGI: > 100 µM
[10]
  TGI: > 100 µM
[11]
  TGI: > 100 µM
[12]
  TGI: > 100 µM
[13]
  TGI: > 100 µM
[14]
  TGI: > 100 µM
[15]
  TGI: > 100 µM
[16]
  TGI: > 100 µM
[17]
  TGI: > 100 µM
[18]
  TGI: > 100 µM
[19]
  TGI: > 100 µM
[20]
  TGI: > 100 µM
[21]
  TGI: > 100 µM
[22]
  TGI: > 100 µM
[23]
  TGI: > 100 µM
[24]
  TGI: > 100 µM
[25]
  TGI: > 100 µM
[26]
  TGI: > 100 µM
[27]
  TGI: > 100 µM
[28]
  TGI: > 100 µM
[29]
  TGI: > 100 µM
[30]
  TGI: > 100 µM
[31]
  TGI: > 100 µM
[32]
  TGI: > 100 µM
[33]
  TGI: > 100 µM
[34]
  TGI: > 100 µM
[35]
  TGI: > 100 µM
[36]
  TGI: > 100 µM
[37]
  TGI: > 100 µM
[38]
  TGI: > 100 µM
[39]
  TGI: > 100 µM
[40]
  TGI: > 100 µM
[41]
  TGI: > 100 µM
[42]
  TGI: > 100 µM
[43]
  TGI: > 100 µM
[44]
  TGI: > 100 µM
[45]
  TGI: > 100 µM
[46]
  TGI: > 100 µM
[47]
  TGI: > 100 µM
[48]
  TGI: > 100 µM
[49]
  TGI: > 100 µM
[50]
  TGI: > 100 µM
[51]
  TGI: > 100 µM
[52]
  TGI: > 100 µM
[53]
  TGI: > 100 µM
[54]
  TGI: > 100 µM
[55]
  TGI: > 100 µM
[56]
  TGI: > 100 µM
[57]
  TGI: > 100 µM
[58]
  TGI: > 100 µM
[59]
  TGI: > 100 µM

## Oc1ccc(/C=C/c2cc(O)cc3c2C(c2cc(O)cc(O)c2)C(c2ccc(O)c(O)c2)O3)cc1 (stereo unspecified)
[1]
  TGI: > 100 µM
[2]
  TGI: > 100 µM
[3]
  TGI: > 100 µM
[4]
  TGI: 33.8 µM
[5]
  TGI: 64.4 µM
[6]
  TGI: 98.1 µM
[7]
  TGI: > 100 µM
[8]
  TGI: 45.1 µM
[9]
  TGI: > 100 µM
[10]
  TGI: > 100 µM
[11]
  TGI: 57.4 µM
[12]
  TGI: > 100 µM
[13]
  TGI: 45.4 µM
[14]
  TGI: 54.5 µM
[15]
  TGI: > 100 µM
[16]
  TGI: > 100 µM
[17]
  TGI: 88.8 µM
[18]
  TGI: 47.6 µM
[19]
  TGI: > 100 µM
[21]
  TGI: 87.4 µM
[22]
  TGI: > 100 µM
[23]
  TGI: > 100 µM
[24]
  TGI: 80.6 µM
[25]
  TGI: > 100 µM
[26]
  TGI: 68 µM
[27]
  TGI: > 100 µM
[28]
  TGI: 56.9 µM
[29]
  TGI: 33.5 µM
[30]
  TGI: > 100 µM
[31]
  TGI: 63.9 µM
[33]
  TGI: 83 µM
[34]
  TGI: > 100 µM
[35]
  TGI: 56.4 µM
[36]
  TGI: 41.2 µM
[37]
  TGI: > 100 µM
[38]
  TGI: 68.2 µM
[39]
  TGI: > 100 µM
[40]
  TGI: 40.6 µM
[41]
  TGI: > 100 µM
[42]
  TGI: > 100 µM
[43]
  TGI: > 100 µM
[44]
  TGI: > 100 µM
[45]
  TGI: 74.8 µM
[46]
  TGI: > 100 µM
[47]
  TGI: 34.7 µM
[48]
  TGI: > 100 µM
[49]
  TGI: > 100 µM
[50]
  TGI: 54.3 µM
[51]
  TGI: > 100 µM
[52]
  TGI: 55.4 µM
[53]
  TGI: > 100 µM
[54]
  TGI: > 100 µM
[55]
  TGI: > 100 µM
[56]
  TGI: > 100 µM
[57]
  TGI: > 100 µM
[58]
  TGI: 42.4 µM
[59]
  TGI: > 100 µM
